In series [1] the test system is monocytes. The series is described as follows: Tubing loop model, monocyte activation by flow cytometry (CD14/CD11b). Type of series: cell-based, human. The settings on record: anti-platelet agent in combination with NM4047. As to the method: (§1) In the following examples, heparinized whole blood from a donor volunteer was circulated in a PVC tubing at 37° C. to allow complement and cellular activation. It is known that alternative complement pathway is activated when blood comes in contact with the artificial surface of the PVC tubing. As a result, complement is activated to release inflammatory molecules. These inflammatory molecules activate neutrophils, monocytes and platelets. The monoclonal antibody NM4047, inhibits complement activation in vitro in human serum. NM4047 inhibits C3a, C5a, and C5b-9 in whole blood in the tubing loop model. […] We attributed these findings to the Fc region on the IgG1. Removal of Fc domain with Ficin generated an F(ab′)2 molecule which inhibited C3a, C5a, C5b-9.
(§2) NM4047 is an IgG1 monoclonal antibody that was identified as a blocker of alternative complement pathway activation. The monoclonal antibody was evaluated for inhibition of complement and cellular activation in a whole blood based extracorporeal circulation model. In this model, whole heparinzed human blood was diluted with plasmalyte and circulated in a PVC tubing loop for 2 h at 37° C. to allow complement activation to occur. A total of 21 tubing loops were prepared. […] Nine tubing loops received 400 μg/ml concentration of NM4047 and the other nine received 100 μg/ml concentration of NM4047. Tubing loops were then rotated for 2 h at 37° C. Following the rotation, aliquots of the blood were stained for flow cytometry for the evaluation of cellular activation. A separate aliquot of blood was centrifuged to separate plasma, which was used for measuring complement activation products in ELISA. […] Cellular activation was evaluated using flow cytometry methods. […] Cell populations were read in the BD-LSR 1 and Cell Quest software. The raw data taken from Cell Quest were analyzed using Win List software from Verity, populations were measured using Ln Median shifts in the activation marker in the case of neutrophils and monocytes, and population percentage shifts for platelets. […]
(In general: In flow cytometry, cells or beads pass a laser one at a time.)

Series [2] relates to neutrophils. Briefly: Tubing loop model, neutrophil activation by flow cytometry (CD15/CD11b). The settings on record: anti-platelet agent in combination with NM4047. It is filed as cell-based, human. As for the experimental part: as §1, §2
The subject of series [3] is platelets. The series is described as follows: Tubing loop model, platelet activation by flow cytometry (CD61/CD62P). It is filed as cell-based, human. The settings on record: for effect on Fc mediated platelet activation (CD62P): anti-platelet agent at various concentrations with 400 μg/ml NM4047. As for the experimental part:
as §1
NM4047 is an IgG1 monoclonal antibody that was identified as a blocker of alternative complement pathway activation. The monoclonal antibody was evaluated for inhibition of complement and cellular activation in a whole blood based extracorporeal circulation model. In this model, whole heparinzed human blood was diluted with plasmalyte and circulated in a PVC tubing loop for 2 h at 37° C. to allow complement activation to occur. A total of 21 tubing loops were prepared. […] Nine tubing loops received 400 μg/ml concentration of NM4047 and the other nine received 100 μg/ml concentration of NM4047. Tubing loops were then rotated for 2 h at 37° C. Following the rotation, aliquots of the blood were stained for flow cytometry for the evaluation of cellular activation. A separate aliquot of blood was centrifuged to separate plasma, which was used for measuring complement activation products in ELISA. […] However, activation of neutrophils, monocytes, and platelets was not inhibited. Cellular activation was evaluated using flow cytometry methods. Aliquots of blood sample were stained with FITC labeled CD15 for neutrophils, FITC labeled CD14 for monocytes, and FITC labeled CD61 for Platelets. The cells were also stained with activation markers PE labeled CD11b for neutrophils and monocytes, and PE labeled CD62P for platelets. The staining was done in three groups, one group containing CD15/CD11b, second group contained CD14/CD11b, and the third group contained CD61/CD62P antibodies. Following staining, the cells were lysed with lysis buffer, centrifuged to pellet the cells. After a quick wash with 1% BSA/PBS, the cells were suspended in 1% paraformaldehyde buffer. Cell populations were read in the BD-LSR 1 and Cell Quest software. The raw data taken from Cell Quest were analyzed using Win List software from Verity, populations were measured using Ln Median shifts in the activation marker in the case of neutrophils and monocytes, and population percentage shifts for platelets. The data was then plotted on MicroCal Origin software. […] The lack of cellular inhibition could only be explained by the fact that the IgG1 had the Fc region. To determine if the predicted Fc is the cause of the observed cellular activation, IgG1 was digested with Ficin protease.
NM4047 (IgG1) monoclonal antibody was evaluated for inhibition of complement and cellular activation in a whole blood based extracorporeal circulation model in the presence of ReoPro. ReoPro is a GPIIbIIIa monoclonal antibody that binds resting and activated platelets. In this experiment, heparinzed human blood was diluted with plasmalyte and circulated in a PVC tubing loop for 2 h at 37° C. to allow complement activation to occur. A total of 21 tubing loops were prepared. […] Nine tubing loops received 400 μg/ml concentration of NM4047 and the other nine received 100 μg/ml concentration of NM4047. All samples other than controls received 10 μg/ml of ReoPro (clinical material). All tubing loops were then rotated for 2 h at 37° C. Following the rotation, aliquots of the blood were stained for flow cytometry for the evaluation of cellular activation. […]

Series [4] deals with erythrocytes. Briefly: Hemolysis of erythrocytes in tubing loop experiments. It is filed as cell-based, human. The settings on record: high concentration doses; tested at 5-50 μg/ml. From the text:
In this example, we evaluated the effects of Aspirin a commonly used inhibitor of platelet activation. Aspirin is also used as a standard of care for cardiac procedures. […] The tubing loop experiments presented in various examples above remained the same. The only difference was in the type of test agent used across these experiments. While good results were noticed with ReoPro and Aggrastat, the cost of such drugs may be prohibitive. In such cases, aspirin may become a viable option.

For series [5], the system named is complement activation. The series is described as follows: Tubing loop model, overall complement activation or inhibition. It is filed as biochemical, human. The settings on record: anti-platelet agent in combination with NM4047. As to the method: as §2, with “activation.” for “activation. A separate aliquot of blood was centrifuged to separate plasma, which was used for measuring complement activation products in ELISA.”
NM4047 (IgG1) monoclonal antibody was evaluated for inhibition of complement and cellular activation in a whole blood based extracorporeal circulation model in the presence of ReoPro. […] Cellular activation was evaluated using flow cytometry methods. […]

Positions of bridges follow the written chain, without caps; N, C: chain ends. Non-standard residues stand in square brackets, D forms with d. Residues, ends and D or L forms follow the SMILES beside them. hArg = N=C(N)NCCCC[C@H](N)C(=O)O; Mpa = O=C(O)CCS

Take `CCCCS(=O)(=O)N[C@@H](Cc1ccc(OCCCCC2CCNCC2)cc1)C(=O)O` [Aggrastat, Tirofiban]: the “effect on monocyte activation” value in series [1] is given as “no effect”. Further, in series [2], the “effect on neutrophil activation” value was “no effect”. For the same molecule, in series [3], the “effect on Fc mediated platelet activation (CD62P)” value (“effect … (CD62P)” for short) is given as “highly potent”. Moreover, the “concentration achieving complete inhibition of platelet activation” value in series [3] (with 400 μg/ml NM4047, 1 to 20 μg/ml tested) amounted to 1 µg/mL.
For the molecule `CC(=O)Oc1ccccc1C(=O)O` [Aspirin], in series [1], the “effect on monocyte activation” value was “only partial effect”. Moreover, the hemolysis of erythrocytes result in series [4] is reported as “caused hemolysis”. For the same molecule, the “effect on neutrophil activation” value in series [2] is listed as “only partial effect”. The “effect … (CD62P)” value in series [3] is listed as “inhibits”. In addition, the “effect on level of complement inhibition by NM4047” value in series [5] was “did not alter”.
`N=C(N)NCCCC[C@@H]1NC(=O)CCSSC[C@@H](C(N)=O)NC(=O)[C@@H]2CCCN2C(=O)[C@H](Cc2c[nH]c3ccccc23)NC(=O)[C@H](CC(=O)O)NC(=O)CNC1=O` [Integrillin, Eptifibatide] ([Mpa][hArg]GDWPC-NH2; disulfide 1-7): the total platelet activation entry in series [3] (Integrillin 100 μg/ml with 400 μg/ml NM4047) is “at least 4 fold”. The “effect … (CD62P)” value in series [3] is “does not inhibit”.

B1: Abciximab (antibody, chains of the INN, looked up, V domains shown)
VH: EVQLQQSGTVLARPGASVKMSCEASGYTFTNYWMHWVKQRPGQGLEWIGAIYPGNSDTSYIQKFKGKAKLTAVTSTTSVYMELSSLTNEDSAVYYCTLYDGYYVFAYWGQGTLVTVSA
VL: EIVLTQSPVTLSVTPGDSVSLSCRASRDISNNLHWFQQTSHESPRLLIKYASQSMSGIPSRFSGSGSGTDFTLSINSVETEDFGMYFCQQTNSWPYTFGGGTKLEIK
modifications: Fab
notes: monoclonal F(ab) fragment GPIIb/IIIa antagonist
Consider B1, for which, in series [1], the “effect on monocyte activation” value is on record as “does not inhibit”. In series [2], the “effect on neutrophil activation” value is “does not inhibit”. In addition, the “inhibition of platelet activation” value in series [3] (ReoPro 10 μg/ml with NM4047 400 or 100 μg/ml) is given as about 100%. In series [3] (ReoPro together with IgG2 antibody), the “platelet activation in samples containing IgG2 antibody” value is listed as “inhibited”. In series [3], the “effect … (CD62P)” value was “dose dependent”. For the same molecule, in series [3] (with 400 μg/ml NM4047), the “concentration at which effect on platelet inhibition starts to vanish” value was 0.5 µg/mL. Moreover, in series [5], the “effect on level of complement inhibition by NM4047” value is reported as “did not affect”.
